Read-outs that look alike come from different tables or passages of the source.
What was measured:
[1] = Microsomal stability assay, mouse liver microsomes (MLM); format: in vitro ADME; details: 0.5 mg/mL protein, 1 μM substrate
Procedure, shortened: (§1)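 Substrate depletion: 1 μM compound incubated at 37° C. with cryopreserved mouse or human liver microsomes at 0.5 mg·mL^−1 protein. Timed aliquots quenched in ice-cold organic solvent and measured by LC-MS/MS; t1/2 and CLint derived from the slope of ln % remaining versus time.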

[2] = tested on: RAF dimers in HCT-116 cells; test: HCT-116 AlphaLISA SureFire pERK1/2 cellular assay (dimer); format: cell-based; details: Homo sapiens, HCT-116, 1 hr
Procedure, shortened: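 HCT-116 (KRAS G13D) cells, 30,000/well, pretreated 1 h with 1 μM Encorafenib to induce RAF dimers, washed, then dosed 1 h at 37° C with compound (10-point, top 10 μM, 1/2 log steps) in growth medium. pERK1/2 (T202/Y204) measured by AlphaLISA SureFire; absolute IC50 versus DMSO control.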

[3] = tested on: constitutive ERK phosphorylation in WiDr cells; test: WiDr AlphaLISA SureFire pERK1/2 cellular assay; format: cell-based, human; details: Homo sapiens, WiDr cells, 2 hr, read-out: pERK WiDr (2 hr) Abs pIC50 (converted)
Experimental: The human HCT-116 colorectal carcinoma cell line (ATCC CCL-247) endogenously expresses the KRAS^G13D mutation, which leads to constitutive activation of the MAP kinase pathway and phosphorylation of ERK. […] Assay read outs took place 2 or 24 hours after dosing with compounds. On the first day, HCT-116 cells were harvested, resuspended in growth medium (McCoys5A with Glutamax (Life Technologies 36600021) and 10% heat-inactivated fetal bovine serum (Sigma F9665)), and counted. Cells were plated in 100 μl per well in each well of a 96-well culture dish (Sigma CLS3598) to a final density of 30,000 (2 hr read) or 15,000 (24 hr read) cells per well and incubated over night at 37° C. and 5% CO2. On day 2, the growth medium was exchanged for dosing medium (McCoys5A with Glutamax (Life Technologies 36600021) and 1% heat-inactivated fetal bovine serum (Sigma F9665)) and the cells were dosed with compounds to produce a 10-point dose response, where the top concentration was 1 μM and subsequent concentrations were at 1/3 log dilution intervals. A matched DMSO control was included. The cells were subsequently incubated for either 2 or 24 hours at 37° C. and 5% CO2. After incubation, media was removed and the cells were incubated with lysis buffer containing phosphatase inhibitors for 15 minutes at room temperature. Cell lysates were transferred to a 12 area 96 well white Optiplate™ (Perkin Elmer 6005569) and incubated with anti-mouse IgG acceptor beads, a biotinylated anti-ERK1/2 rabbit antibody recognizing both phosphorylated and non-phosphorylated ERK1/2, a mouse antibody targeted to the Thr202/Tyr204 epitope and recognizing phosphorylated ERK proteins only, and streptavidin-coated donor beads. The biotinylated antibody binds to the streptavidin-coated donor beads and the phopsho-ERK1/2 antibody binds to the acceptor beads. Plates were read on an EnVision reader (Perkin Elmer) and excitation of the beads at 680 nm with a laser induced the release of singlet oxygen molecules from the donor beads that trigger energy transfer to the acceptor beads in close proximity, producing a signal that can be measured at […]. Both antibodies bound to phosphorylated ERK proteins, bringing the donor and acceptor beads into close proximity. All data were analyzed using the Dotmatics or GraphPad Prism software packages. Inhibition of ERK phosphorylation was assessed by determination of the absolute IC50 value, which is defined as the concentration of compound required to decrease the level of phosphorylated ERK proteins by 50% when compared to DMSO control.
WiDr AlphaLISA SureFire pERK1/2 Cellular Assay
The human WiDr colorectal adenocarcinoma cell line (ATCC CCL-218) endogenously expresses the BRAF^V600E mutation, which leads to constitutive activation of the MAP kinase pathway and phosphorylation of ERK. […] The main procedure is essentially the same as for HCT-116 cells (above), with the following adjustments to the growth medium (Eagle's Minimum Essential Medium (Sigma M2279) with 1× Glutamax (Life Technologies 35050038), 1× Sodium-Pyruvate (Sigma S8636), and 10% heat-inactivated fetal bovine serum (Sigma F9665)), the dosing medium (Eagle's Minimum Essential Medium (Sigma M2279) with 1× Glutamax (Life Technologies 35050038), 1× Sodium-Pyruvate (Sigma S8636), and 1% heat-inactivated fetal bovine serum (Sigma F9665)), and the seeding densities (2 hr: 50,000 cells per well; 24 hr: 35,000 cells per well). Moreover, the compounds were dosed in 1/2 log dilution intervals with the top concentration of 10 μM.

[4] = Microsomal stability assay, human liver microsomes (HLM); format: in vitro ADME; details: 0.5 mg/mL protein, 1 μM substrate
Procedure, shortened: as §1

[5] = Plasma protein binding assay, human plasma (hPPB); format: in vitro ADME; details: 5 μM
Procedure, shortened: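 Equilibrium dialysis of 5 μM compound in previously frozen human or mouse plasma against phosphate buffer, 4 h at 37 °C. Both chambers quantified by LC-MS/MS; % free = (1−((PC−PF)/PC))×100.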

[6] = HCT116 cells, dimer, read-out: pERK HCT116 dimer (1 hr) plC50 (converted)
[7] = equilibrium dialysis 4 hours at 37° C.
[8] = HCT116 cells pre-dosed with 1 μM Encorafenib, read-out: pERK HCT116 dimer (1 hr) pIC50 (converted)
[9] = equilibrium dialysis 4 hours 37° C.

| SMILES | microsomal CLint at 1 μM ([1]; 37° C.) [µL/min/mg] | IC50 [2, 6] [nM] | IC50 ([3]; Abs) [nM] | microsomal CLint at 1 μM ([4]; 37° C.) [µL/min/mg] | hPPB (% free) [5, 7] [% free] | microsomal CLint at 1 μM [1] [µL/min/mg] | IC50 [2, 8] [nM] | IC50 ([3]; absolute IC50) [nM] | microsomal CLint at 1 μM [4] [µL/min/mg] | hPPB (% free) [5, 9] [% free] | MLM (CLint) ([1]; 37° C.) [µL/min/mg] |
| --- | --- | --- | --- | --- | --- | --- | --- | --- | --- | --- | --- |
| Cn1nc(C(F)(F)F)cc1-c1c[nH]c(C2COc3ccc(Oc4ccnc5c4CCC(=O)N5)cc3C2)n1 (stereo not shown) [Compound 107, 5-[3-[4-[2-methyl-5-(trifluoromethyl)pyrazol-3-yl]-1H-imidazol-2-yl]chroman-6-yl]oxy-3,4-dihydro-1H-1,8-naphthyridin-2-one] | 12.5 | 57.5 | 209 | 30.3 | 0.7 |  |  |  |  |  |  |
| CC(=O)Nc1cc(Oc2ccc3c(c2)CC(c2nc(-c4ccccc4)c[nH]2)CO3)ccn1 (stereo not shown) [Compound 156, N-[4-[3-(4-phenyl-1H-imidazol-2-yl)chroman-6-yl]oxy-2-pyridyl]acetamide] | 152 | 52.5 | 132 | 30.3 | 0.5 |  |  |  |  |  |  |
| CCn1nc(C)cc1-c1c[nH]c(C2COc3ccc(Oc4ccnc5c4CCC(=O)N5)cc3C2)n1 (stereo not shown) [Compound 124, 5-[3-[4-(2-ethyl-5-methyl-pyrazol-3-yl)-1H-imidazol-2-yl]chroman-6-yl]oxy-3,4-dihydro-1H-1,8-naphthyridin-2-one] | 28.2 | 269 | 661 | 65.8 | 2.7 |  |  |  |  |  |  |
| CCc1cc(-c2c[nH]c(C3COc4ccc(Oc5ccnc6c5CCC(=O)N6)cc4C3)n2)ccn1 (stereo not shown) [Compound 118, 5-[3-[4-(2-ethyl-4-pyridyl)-1H-imidazol-2-yl]chroman-6-yl]oxy-3,4-dihydro-1H-1,8-naphthyridin-2-one] | 40 | 148 | 398 | 81.2 | 1.3 |  |  |  |  |  |  |
| O=C(CN1CC[C@@H](O)C1)Nc1cc(Oc2ccc3c(c2)CC(c2nc(-c4ccccc4)c[nH]2)CO3)ccn1 (stereo partly shown) [Compound 145] | 147 | 178 | 331 | 57.2 | 0.4 |  |  |  |  |  |  |
| CN1CCN(CC(=O)Nc2cc(Oc3ccc4c(c3)CC(c3nc(-c5ccccc5)c[nH]3)CO4)ccn2)CC1 (stereo not shown) [Compound 146, 2-(4-methylpiperazin-1-yl)-N-[4-[3-(4-phenyl-1H-imidazol-2-yl)chroman-6-yl]oxy-2-pyridyl]acetamide] | 89.7 | 170 | 398 | 33.4 | 1.5 |  |  |  |  |  |  |
| Cc1cc(-c2c[nH]c(C3COc4ccc(Oc5ccnc6c5CCC(=O)N6)cc4C3)n2)n(CC(F)(F)F)n1 (stereo not shown) [Compound 126, 5-[3-[4-[5-methyl-2-(2,2,2-trifluoroethyl)pyrazol-3-yl]-1H-imidazol-2-yl]chroman-6-yl]oxy-3,4-dihydro-1H-1,8-naphthyridin-2-one] | 55.7 | 245 | 1020 | 121 | 1.0 |  |  |  |  |  |  |
| O=C(Cn1cncn1)Nc1cc(Oc2ccc3c(c2)CC(c2nc(-c4ccccc4)c[nH]2)CO3)ccn1 (stereo not shown) [Compound 154] | 95.2 | 38 | 33.1 | 22.8 | 0.75 |  |  |  |  |  |  |
| Cc1cc2nc(C3COc4ccc(Oc5ccnc6c5CCC(=O)N6)cc4C3)[nH]c2cc1C (stereo not shown) [Compound 29] |  |  |  |  |  | 77.6 | 219 | 107 | 119 | 0.2 |  |
| O=C1CCc2c(Oc3ccc4c(c3)CC(c3nc5cc(C(F)(F)F)ncc5[nH]3)CO4)ccnc2N1 (racemic) [Compound 32] |  |  |  |  |  | 8.3 | 398 | 204 | 11.3 | 1.3 |  |
| Cc1ccc(-c2c[nH]c(C3COc4ccc(Oc5ccnc6c5CCC(=O)N6)cc4C3)n2)s1 (stereo not shown) [Compound 110] | 55.5 | 50.1 | 70.8 | 48.3 | 0.2 |  |  |  |  |  |  |
| O=C(Nc1cc(Oc2ccc3c(c2)CC(c2nc(-c4ccccc4)c[nH]2)CO3)ccn1)C1CC1 (racemic) [Compound 136] |  | 89.1 | 66.1 | 58.1 | 0.2 |  |  |  |  |  | 277 |
| COc1ccsc1-c1c[nH]c(C2COc3ccc(Oc4ccnc5c4CCC(=O)N5)cc3C2)n1 (stereo not shown) [Compound 123] | 126 | 58.9 | 33.9 | 97.5 | 0.23 |  |  |  |  |  |  |
| O=C1CCc2c(Oc3ccc4c(c3)CC(c3nc5cc(Cl)ccc5[nH]3)CO4)ccnc2N1 (stereo not shown) [Compound 25] |  |  |  |  |  | 48.5 | 115 | 129 | 50.1 | 0.3 |  |
| O=C(Nc1nccc(Oc2ccc3c(c2)CC(c2nc(-c4ccccc4)c[nH]2)CO3)n1)C1CC1 (stereo not shown) [Compound 148, N-[4-[3-(4-phenyl-1H-imidazol-2-yl)chroman-6-yl]oxypyrimidin-2-yl]cyclopropanecarboxamide] | 211 | 457 | 871 | 132 | 0.9 |  |  |  |  |  |  |
| O=C(Nc1cc(Oc2ccc3c(c2)CC(c2nc(-c4ccccc4)c[nH]2)CO3)ccn1)C1CC1 (stereo not shown) [Compound 45, N-[4-[3-(4-phenyl-1H-imidazol-2-yl)chroman-6-yl]oxy-2-pyridyl]cyclopropanecarboxamide] |  |  |  |  |  | 277 | 89.1 | 66.1 | 58.1 | 0.2 |  |
| O=C(CN1CCCC1)Nc1cc(Oc2ccc3c(c2)CC(c2nc(-c4ccccc4)c[nH]2)CO3)ccn1 (stereo not shown) [Compound 152] | 259 | 275 | 219 | 29 | 0.48 |  |  |  |  |  |  |
| O=C1CCc2c(Oc3ccc4c(c3)CN(C(=O)Nc3ccc(C(F)(F)F)cc3)CC4)ccnc2N1 [Compound 47] |  |  |  |  |  | 32.5 | 64.6 | 117 | 24.5 | 0.7 |  |
| CCc1cc(-c2c[nH]c(C3COc4ccc(Oc5ccnc6c5CCC(=O)N6)cc4C3)n2)n(C)n1 (stereo not shown) [Compound 111] | 26.9 | 107 | 324 | 48.1 | 1.91 |  |  |  |  |  |  |
| CN(C)c1ccc2[nH]c(C3COc4ccc(Oc5ccnc6c5CCC(=O)N6)cc4C3)nc2c1 (stereo not shown) [Compound 26] |  |  |  |  |  | 89.3 | 275 | 302 | 77.5 | 0.7 |  |
